Like-named read-outs stand apart in the source and are kept apart here.

The source of these data is patent US7528164B2, “Substituted 4-aryl-4h-pyrrolo[2,3-h]chromenes and analogs as activators of caspases and inducers of apoptosis and the use thereof” (Cytovia, Inc., priority 2002, dated 2009).

One assay deals with T-47D. As to the kind of experiment: Caspase cascade activation assay in T-47D cells (N-(Ac-DEVD)-N'-ethoxycarbonyl-R110 fluorogenic substrate). Type of assay: cell-based. To be noted: T-47D human breast cancer cells, 24 h incubation; for EC50: sigmoidal dose-response, read-out: Caspase potency EC50; for Caspase activity (Ratio): ratio of net RFU of test compound to control. The protocol: (§1) Human breast cancer cell lines T-47D and ZR-75-1 were grown according to media component mixtures designated by American Type Culture Collection+10% FCS (Invitrogen Corporation), in a 5% CO2-95% humidity incubator at 37° C. T-47D and ZR-75-1 cells were maintained at a cell density between 30 and 80% confluency at a cell density of 0.1 to 0.6×10^6 cells/mL. Cells were harvested at 600×g and resuspended at 0.65×10^6 cells/mL into appropriate media+10% FCS. An aliquot of 45 μl of cells was added to a well of a 96-well microtiter plate containing 5 μl of a 10% DMSO in RPMI-1640 media solution containing about […] of 2-amino-3-cyano-4-(5-methyl-pyridin-3-yl)-7-methyl-4H-pyrrolo[2,3-h]chromene (Example 10) or other test compound (0.016 to 1 μM final). An aliquot of 45 μl of cells was added to a well of a 96-well microtiter plate containing 5 μl of a 10% DMSO in RPMI-1640 media solution without test compound as the control sample. The samples were mixed by agitation and then incubated at 37° C. for 24 h in a 5% CO2-95% humidity incubator. After incubation, the samples were removed from the incubator and 50 μl of a solution containing 20 μM of N-(Ac-DEVD)-N′-ethoxycarbonyl-R110 (SEQ ID No:1) fluorogenic substrate (Cytovia, Inc.; U.S. Pat. No. 6,335,429), 20% sucrose (Sigma), 20 mM DTT (Sigma), 200 mM NaCl (Sigma), 40 mM Na PIPES buffer pH 7.2 (Sigma), and 500 μg/ml lysolecithin (Calbiochem) was added. The samples were mixed by agitation and incubated at room temperature. Using a fluorescent plate reader (Model 1420 Wallac Instruments), an initial reading (T=0) was made approximately 1-2 min after addition of the substrate solution, employing excitation at 485 nm and emission at 530 nm, to determine the background fluorescence of the control sample. After the 3 h incubation, the samples were read for fluorescence as above (T=3 h).
(§2) The Relative Fluorescence Unit values (RFU) were used to calculate the sample readings as follows: RFU(T=3h)−Control RFU(T=0)=Net RFU(T=3h) The activity of caspase cascade activation was determined by the ratio of the net RFU value for 2-amino-3-cyano-4-(5-methyl-pyridin-3-yl)-7-methyl-4H-pyrrolo[2,3-h]chromene or other test compound to that of control samples. The EC50 (nM) was determined by a sigmoidal dose-response calculation (Prism 2.0, GraphPad Software Inc.).

A further assay relates to ZR-75-1. The experiment in a line: Caspase cascade activation assay in ZR-75-1 cells (N-(Ac-DEVD)-N'-ethoxycarbonyl-R110 fluorogenic substrate). Type of assay: cell-based. To be noted: ZR-75-1 human breast cancer cells, 24 h incubation; for Caspase activity (Ratio): ratio of net RFU of test compound to control; for EC50: sigmoidal dose-response, read-out: Caspase potency EC50. On the procedure:
as §1, §2

With `Cn1ccc2c3c(ccc21)C(c1cnc2ccccc2n1)C(C#N)=C(N)O3` (stereo not shown) [Example 3, 2-Amino-3-cyano-7-methyl-4-(quinoxalin-2-yl)-4H-pyrrolo[2,3-h]-chromene], the EC50 was found to be 58.1 nM with T-47D (T47D) and 27.8 nM with ZR-75-1. Moreover, the “Caspase activity (Ratio)” value in the assay on T-47D was 5.6; in the assay on ZR-75-1, 3.1.
For the molecule `CCn1ccc2c3c(ccc21)C(c1cc(Br)c(OC)c(OC)c1)C(C#N)=C(N)O3` (stereo not shown) [Example 4, 2-Amino-4-(3-bromo-4,5-dimethoxyphenyl)-3-cyano-7-ethyl-4H-pyrrolo[2,3-h]chromene], the EC50 in the assay on T-47D (T47D) stood at 14 nM; with ZR-75-1, 13.1 nM. Also, the “Caspase activity (Ratio)” value with T-47D amounted to 6.6; in the assay on ZR-75-1 it was 9.2.
`CCC=CCC=CCC=CCC=CCC=CCC=CCCC(=O)OCn1ccc2c3c(ccc21)C(c1cc(Br)c(OC)c(OC)c1)C(C#N)=C(N)O3` (stereo not shown) [Example 38, 4,7,10,13,16,19-Docosahexaenoic acid {2-Amino-4-(3-bromo-4,5-dimethoxy-phenyl)-3-cyano-4H-pyrrolo[2,3-h]chromene}-7-ylmethyl ester]: the results for the “Caspase activity (Ratio)” value with T-47D and in the assay with ZR-75-1 were 5.2 and 6.9, respectively. Further, the EC50 with T-47D is 55 nM; with ZR-75-1, 29 nM.
`Cn1ccc2c3c(ccc21)C(c1cccc([N+](=O)[O-])c1)C(C#N)=C(N)O3` (stereo not shown) [Example 25, 2-Amino-3-cyano-4-(3-nitrophenyl)-7-methyl-4H-pyrrolo[2,3-h]chromene]: the EC50 in the assay with T-47D (T47D) worked out at 7.2 nM; in the assay on ZR-75-1 it was 3.2 nM. Also, the figures for the “Caspase activity (Ratio)” value in the assay with T-47D and in the assay with ZR-75-1 were 3.2 and 7.1, respectively.
With “2-Amino-4-(5-bromo-pyridin-3-yl)-3-cyano-7-methyl-4H-imidazo[4,5-h]chromene [Example 13]”, in the assay with T-47D, the “Caspase activity (Ratio)” value amounted to 8.8 and the EC50 amounted to 6.8 nM. In the assay with ZR-75-1, the “Caspase activity (Ratio)” value was 8.0 and the EC50 was 3.2 nM.
Take `Cn1ccc2c3c(ccc21)C(c1c[nH]c2ccccc12)C(C#N)=C(N)O3` (stereo not shown) [Example 8, 2-Amino-3-cyano-4-(indol-3-yl)-7-methyl-4H-pyrrolo[2,3-h]chromene]: the EC50 in the assay with T-47D (T47D) turned out to be 58.7 nM; with ZR-75-1, 55 nM. In addition, the “Caspase activity (Ratio)” value in the assay on T-47D turned out to be 3.8; with ZR-75-1 it was 8.9.
Turning to `COc1cc(C2C(C#N)=C(N)Oc3c2ccc2c3c(C)cn2C)cc(Br)c1OC` (stereo not shown) [Example 40F, 2-Amino-3-cyano-4-(3-bromo-4,5-dimethoxyphenyl)-7,9-dimethyl-4H-pyrrolo[2,3-h]chromene], the values for the EC50 in the assay with T-47D (T47D) and in the assay on ZR-75-1 were 42 nM and 26 nM, respectively. For the same molecule, the “Caspase activity (Ratio)” value in the assay with T-47D amounted to 2.6; in the assay with ZR-75-1, 3.9.
Take “2-Amino-3-cyano-4-(5-methyl-pyridin-3-yl)-7-methyl-4H-imidazo[4,5-h]chromene [Example 14]”: the results for the “Caspase activity (Ratio)” value in the assay on T-47D and in the assay on ZR-75-1 were 8.0 and 9.9, respectively. In addition, the EC50 in the assay with T-47D was found to be 19.8 nM; in the assay on ZR-75-1 it was 10.4 nM.
As to `Cn1ccc2c3c(ccc21)C(c1cc(F)cc(F)c1)C(C#N)=C(N)O3` (stereo not shown) [Example 30, 2-Amino-3-cyano-4-(3,5-difluorophenyl)-7-methyl-4H-pyrrolo[2,3-h]chromene], the EC50 in the assay with T-47D (T47D) is 7.3 nM; in the assay on ZR-75-1, 3.4 nM. The figures for the “Caspase activity (Ratio)” value with T-47D and in the assay on ZR-75-1 were 3.6 and 5.6, respectively.
In the case of `Cn1ccc2c3c(ccc21)C(c1cnc(O)c(Cl)c1)C(C#N)=C(N)O3` (stereo not shown) [Example 9, 2-Amino-4-(5-chloro-6-hydroxy-pyridin-3-yl)-3-cyano-7-methyl-4H-pyrrolo[2,3-h]chromene], the EC50 stood at 14.2 nM in the assay on T-47D (T47D) and 6.2 nM in the assay on ZR-75-1. For the same molecule, the figures for the “Caspase activity (Ratio)” value with T-47D and in the assay on ZR-75-1 were 8.3 and 7.8, respectively.
On to `Cc1cncc(C2C(C#N)=C(N)Oc3c2ccc2c3CCN2C)c1` (stereo not shown) [Example 36, 2-Amino-4-(5-methyl-pyridin-3-yl)-3-cyano-7-methyl-8,9-dihydro-4H-pyrrolo[2,3-h]chromene], for which the results for the EC50 in the assay with T-47D (T47D) and in the assay with ZR-75-1 were 13 nM and 5 nM, respectively. Also, the figures for the “Caspase activity (Ratio)” value in the assay with T-47D and with ZR-75-1 were 4.6 and 6.3, respectively.
Taken in the same sequence, the figures for `COc1cc(OC)cc(C2C(C#N)=C(N)Oc3c2ccc2c3ccn2C)c1` (stereo not shown) [Example 26, 2-Amino-3-cyano-4-(3,5-dimethoxyphenyl)-7-methyl-4H-pyrrolo[2,3-h]chromene] were 3.5 nM, 1.7 nM, 5.2 and 7.1.
Regarding `Cn1ccc2c3c(ccc21)C(c1cc(Cl)cc(Cl)c1)C(C#N)=C(N)O3` (stereo not shown) [Example 40D, 2-Amino-3-cyano-4-(3,5-dichlorophenyl)-7-methyl-4H-pyrrolo[2,3-h]chromene], the values for the concentration giving a half-maximal response (EC50) in the assay with T-47D (T47D) and in the assay on ZR-75-1 were 25 nM and 15 nM, respectively. Besides, the “Caspase activity (Ratio)” value in the assay on T-47D turned out to be 3.3; with ZR-75-1, 2.9.
Taken in the same sequence, the figures for `Cn1ccc2c3c(ccc21)C(c1ccc(F)c(F)c1)C(C#N)=C(N)O3` (stereo not shown) [Example 40G, 2-Amino-3-cyano-4-(3,4 difluorophenyl)-7-methyl-4H-pyrrolo[2,3-h]chromene] were 29 nM, 15 nM, 4.6 and 5.9.
Consider `COc1cccc(C2C(C#N)=C(N)Oc3c2ccc2c3ccn2C)c1` (stereo not shown) [Example 28, 2-Amino-3-cyano-4-(3-methoxyphenyl)-7-methyl-4H-pyrrolo[2,3-h]chromene], for which the EC50 with T-47D (T47D) came to 7.2 nM; with ZR-75-1, 3.3 nM. The “Caspase activity (Ratio)” value in the assay on T-47D stood at 4.6; in the assay with ZR-75-1, 6.3.
For `COc1cncc(C2C(C#N)=C(N)Oc3c2ccc2c3ccn2C)c1` (stereo not shown) [Example 41, 2-Amino-3-cyano-4-(5-methoxy-pyridin-3-yl)-7-methyl-4H-pyrrolo[2,3-h]chromene], the EC50 in the assay with T-47D (T47D) came to 4 nM; in the assay on ZR-75-1, 2 nM. The “Caspase activity (Ratio)” value with T-47D was 3.8; with ZR-75-1, 4.2.
Taken in the same sequence, the figures for `COc1cc(C2C(C#N)=C(N)Oc3c2ccc2c3ccn2CO)cc(Br)c1OC` (stereo not shown) [Example 17, 2-Amino-4-(3-bromo-4,5-dimethoxyphenyl)-3-cyano-7-hydroxymethyl-4H-pyrrolo[2,3-h]chromene] were 2.1 nM, 1.6 nM, 7.2 and 3.3.
As to `COc1cc(C2C(C#N)=C(N)Oc3c2ccc2c3ccn2C)cc(Br)c1O` (stereo not shown) [Example 18, 2-Amino-4-(3-bromo-4-hydroxy-5-methoxyphenyl)-3-cyano-7-methyl-4H-pyrrolo[2,3-h]chromene], the EC50 in the assay on T-47D (T47D) was 6 nM; in the assay on ZR-75-1, 3.4 nM. Besides, the entries for the “Caspase activity (Ratio)” value in the assay on T-47D and in the assay on ZR-75-1 were 4.0 and 6.6, respectively.
As for `CCC=CCC=CCC=CCC=CCC=CCC=CCCC(=O)OCn1ccc2c3c(ccc21)C(c1cncc(C)c1)C(C#N)=C(N)O3` (stereo not shown) [Example 39, 4,7,10,13,16,19-Docosahexaenoic acid {2-Amino-3-cyano-4-(5-methyl-pyridin-3-yl)-4H-pyrrolo[2,3-h]chromene}-7-ylmethyl ester], in the assay on T-47D, the “Caspase activity (Ratio)” value is recorded as 3.7 and the EC50 came out at 51 nM. Moreover, in the assay on ZR-75-1, the “Caspase activity (Ratio)” value turned out to be 6.2 and the EC50 is 26 nM.

A word on the EC50: it is the concentration needed to bring the measured effect to its halfway point.
